Entries after “also recorded” stand apart in the source; their conditions may differ.

Consider 5 molecules from patent US20160318938A1, “CRYSTALS (2) OF PYRAZINO[2,1-c][1,2,4]TRIAZINE COMPOUND” (PRISM PHARMA CO., LTD., priority 2013, published 2016).

Format in all cases: physicochemical
The nature of data set [1]: Hygroscopicity evaluation by dynamic water adsorption measuring apparatus. To be noted: 25° C.; for variation in the mass (weight) with increasing relative humidity: 5-95% RH stepwise; for hygroscopicity: 5-95% RH. On the procedure: The hygroscopicity of Examples 1, 3 and Comparative Example 1 was evaluated by a dynamic water adsorption measuring apparatus. A sample mounting part of the apparatus was maintained at 25° C., and the relative humidity (RH) was set stepwisely within the range of 5-95% RH. The humidity was controlled by changing the relative flow of 0% RH dry nitrogen and 100% RH humidified nitrogen. The sample weight was confirmed at 2 min intervals by a micro balance, and the humidity was sequentially changed at the time point when the weight shift range for 5 min was below 0.01%.

Data set [2] can be described thus: Relationship between water content of solvent and crystal form (heptane/ethanol 16:3). To be noted: for crystal form: overnight. As for the experimental part: To a saturated solution of crystal C in a mixed solvent of heptane and ethanol (volume ratio 16:3) were added crystal C (100 mg) and crystal D (100 mg) at a temperature shown in Table 2, water in the amount shown in Table 6 was further added, and the mixture was stood overnight. The water content of the solution after the standing was measured by the Karl Fischer method, and the crystal form of compound 1 was measured by powder X-ray diffraction. The amount of the water added is shown in mass % relative to the mass of the whole solvent.

Data set [3] in a line: Stability evaluation of crystals A, B and C (mixture of equal amounts in supersaturated solution). To be noted: for form of the crystal obtained: equal amounts of crystals A, B and C, one day; for relative stability among crystals A, B and C: room temperature or 40° C. As for the experimental part:
To a supersaturated solution of compound 1 using the solvents shown in Table 8 was added a mixture of equal amounts of crystals A, B and C at room temperature or 40° C., and the form of the crystal obtained one day later was observed using powder X-ray diffraction.

Data set [4] is described as follows: Stability evaluation of crystal A: slurry in solvents, crystal form by powder X-ray diffraction and DSC. To be noted: room temperature, 2 days. As for the experimental part: Crystal A was added in excess to the solvents described in Table 1 to give a slurry, which was stood at room temperature for 2 days, and the crystal form thereof was measured using powder X-ray diffraction and differential scanning calorimeter (DSC).

The nature of data set [5]: Thermal stability of crystals A and D (oven heating overnight, powder X-ray diffraction). The following applies: for crystal form after heating: oven, overnight. On the procedure: Crystals A and D were heated in an oven at 50° C. or 70° C. overnight, and transition of each crystal was confirmed by powder X-ray diffraction.
Setting [6] is: single crystal form in heptane/ethanol (16:3) with water content of less than 0.5%, stood overnight.

As to `C[C@H]1C2N(C(=O)CN(C)N2C(=O)NCc2ccccc2)[C@@H](Cc2ccc(O)cc2)C(=O)N1Cc1cccc2cccnc12` (stereo partly drawn) [Comparative Example 1, (6S,9S)—N-benzyl-6-(4-hydroxybenzyl)-2,9-dimethyl-4,7-dioxo-8-(quinolin-8-ylmethyl)octahydro-1H-pyrazino[2,1-c][1,2,4]triazine-1-carboxamide], in data set [1], the “variation in the mass (weight) with increasing relative humidity” value is given as “weight increased along with an increase in the humidity”.

As for `C[C@H]1C2N(C(=O)CN(C)N2C(=O)NCc2ccccc2)[C@@H](Cc2ccc(O)cc2)C(=O)N1Cc1cccc2cccnc12` (stereo partly drawn) [compound 1, (6S,9S)—N-benzyl-6-(4-hydroxybenzyl)-2,9-dimethyl-4,7-dioxo-8-(quinolin-8-ylmethyl)octahydro-1H-pyrazino[2,1-c][1,2,4]triazine-1-carboxamide], the crystal form result is recorded as “crystal C” in data set [2] (crystal C + crystal D (100 mg each) in heptane/ethanol 16:3, 5° C., water added 0 mass %, water content 0.32%); “crystal D” in data set [2] (crystal C + crystal D (100 mg each) in heptane/ethanol 16:3, 5° C., water added 0.5 mass %, water content 0.93%); “crystal D” in data set [2] (crystal C + crystal D (100 mg each) in heptane/ethanol 16:3, 5° C., water added 1.0 mass %, water content 1.56%); “crystal C” in data set [2] (crystal C + crystal D (100 mg each) in heptane/ethanol 16:3, 40° C., water added 0 mass %, water content 0.33%); “crystal D” in data set [2] (crystal C + crystal D (100 mg each) in heptane/ethanol 16:3, 40° C., water added 0.5 mass %, water content 0.94%); “crystal D” in data set [2] (crystal C + crystal D (100 mg each) in heptane/ethanol 16:3, 40° C., water added 1.0 mass %, water content 1.55%). Also, the crystal form entry is “crystal C” in data set [2] (crystal C + crystal D (100 mg each) in heptane/ethanol 16:3, room temperature, water added 0 mass %, water content 0.33%); “crystal D” in data set [2] (crystal C + crystal D (100 mg each) in heptane/ethanol 16:3, room temperature, water added 0.5 mass %, water content 0.93%); “crystal D” in data set [2] (crystal C + crystal D (100 mg each) in heptane/ethanol 16:3, room temperature, water added 1.0 mass %, water content 1.57%). The crystal form obtained entry is given as “crystal A was obtained” in data set [2] (crystal C + crystal D in heptane/ethanol 16:3, amount of water further added exceeded 2 mass %); “crystal C was obtained” in data set [2] (crystal C + crystal D in heptane/ethanol 16:3, water content less than 0.5%); “crystal D was obtained” in data set [2] (crystal C + crystal D in heptane/ethanol 16:3, water content not less than 0.5%). Besides, the “form of the crystal obtained” value in data set [3] (MTBE, 40° C.) was “crystal C”; in data set [3] (MTBE, room temperature), “crystal C”; in data set [3] (ethyl acetate, 40° C.), “crystal C”; in data set [3] (ethyl acetate, room temperature) it was “crystal C”; in data set [3] (isopropanol, 40° C.), “crystal C”; in data set [3] (isopropanol, room temperature), “crystal C”. The “form of the crystal obtained” value in data set [3] (isopropyl acetate, 40° C.) is recorded as “crystal C”; in data set [3] (isopropyl acetate, room temperature) it was “crystal C”; in data set [3] (water, 40° C.), “crystal A”; in data set [3] (water, room temperature), “crystal A”.

As to `C[C@H]1C2N(C(=O)CN(C)N2C(=O)NCc2ccccc2)[C@@H](Cc2ccc(O)cc2)C(=O)N1Cc1cccc2cccnc12` (stereo partly drawn) [crystal A, (6S,9S)—N-benzyl-6-(4-hydroxybenzyl)-2,9-dimethyl-4,7-dioxo-8-(quinolin-8-ylmethyl)octahydro-1H-pyrazino[2,1-c][1,2,4]triazine-1-carboxamide], the crystal form result in data set [4] (crystal A slurry in MTBE) is reported as “transition did not occur; also recorded: crystal A”; in data set [4] (crystal A slurry in acetonitrile), “transition did not occur; also recorded: crystal A”; in data set [4] (crystal A slurry in ethanol) it was “transition to crystal C occurred gradually”; in data set [4] (crystal A slurry in ethyl acetate), “transition to crystal C occurred gradually”; in data set [4] (crystal A slurry in isopropanol), “transition to crystal C occurred gradually”; in data set [4] (crystal A slurry in isopropyl acetate), “transition did not occur; also recorded: crystal A”. The crystal form result is listed as “transition to crystal B occurred” in data set [4] (crystal A slurry in methanol), “transition did not occur; also recorded: crystal A” in data set [4] (crystal A slurry in methylethyl ketone), “transition to an amorphous form occurred” in data set [4] (crystal A slurry in tetrahydrofuran) and “transition did not occur; also recorded: crystal A” in data set [4] (crystal A slurry in water). In addition, in data set [1], the hygroscopicity result is “low”. Besides, the “variation in the mass (weight) with increasing relative humidity” value in data set [1] (listed as Example 1) was “weight did not increase”. For the same molecule, the “relative stability among crystals A, B and C” value in data set [3] (water) is given as “most stable in water”. Moreover, the “relative stability to heat” value in data set [5] (crystal A versus crystal D, 50° C. overnight) was “more stable to heat than crystal D”. In addition, the “crystal form after heating” value is recorded as “did not show transition; also recorded: not transited; also recorded: crystal A” in data set [5] (50° C.) and “transits to an amorphous form” in data set [5] (70° C.).

Take `C[C@H]1C2N(C(=O)CN(C)N2C(=O)NCc2ccccc2)[C@@H](Cc2ccc(O)cc2)C(=O)N1Cc1cccc2cccnc12` (stereo partly drawn) [crystal C, (6S,9S)—N-benzyl-6-(4-hydroxybenzyl)-2,9-dimethyl-4,7-dioxo-8-(quinolin-8-ylmethyl)octahydro-1H-pyrazino[2,1-c][1,2,4]triazine-1-carboxamide]: the “transition of crystal form” value in data set [2] (setting [6]) is listed as “transition of crystal form did not occur; also recorded: not transited”; in data set [2] (single crystal form in heptane/ethanol (16:3) with water content of not less than 0.5%, left overnight) it was “transited to crystal D”. Besides, the hygroscopicity result in data set [1] was “low”. The “variation in the mass (weight) with increasing relative humidity” value in data set [1] (listed as Example 3) is “weight did not increase”. In addition, the “relative stability among crystals A, B and C” value in data set [3] (isopropanol, isopropyl acetate, MTBE or ethyl acetate) was “most stable in other nonaqueous solvents”.

As for `C[C@H]1C2N(C(=O)CN(C)N2C(=O)NCc2ccccc2)[C@@H](Cc2ccc(O)cc2)C(=O)N1Cc1cccc2cccnc12` (stereo partly drawn) [crystal D, (6S,9S)—N-benzyl-6-(4-hydroxybenzyl)-2,9-dimethyl-4,7-dioxo-8-(quinolin-8-ylmethyl)octahydro-1H-pyrazino[2,1-c][1,2,4]triazine-1-carboxamide], the “transition of crystal form” value in data set [2] (setting [6]) was “transition to crystal C occurred; also recorded: transits to crystal C”. Moreover, the “crystal form after heating” value in data set [5] (50° C.) is given as “A part of crystal D transits to an amorphous form; also recorded: mixture of crystal D”; in data set [5] (70° C.), “transits to an amorphous form”.
